This is an account of results in patent US5502035A, “N-terminus modified analogs of LHRH” (Tap Holdings Inc., priority 1994, dated 1996).

Non-standard residues stand in square brackets, D forms with d. Residues, ends and D or L forms follow the SMILES beside them. *: point of attachment. Shikimoyl = O=C(C1=C[C@@H](O)[C@@H](O)[C@H](O)C1)*; Tetrahydrofuroyl(2R) = O=C([C@H]1CCCO1)*; dPhe(4-Cl) = N[C@H](Cc1ccc(Cl)cc1)C(=O)O; d2Nal = N[C@H](Cc1ccc2ccccc2c1)C(=O)O; Acetyl(3-pyridyl) = O=C(Cc1cccnc1)*; Lys(iPr) = CC(C)NCCCC[C@H](N)C(=O)O; NMeY = CN[C@@H](Cc1ccc(O)cc1)C(=O)O; Thiophene2carbonyl = O=C(c1cccs1)*; d3Pal = N[C@H](Cc1cccnc1)C(=O)O; Isonicotinoyl = O=C(c1ccncc1)*; Nicotinoyl = O=C(c1cccnc1)*; Picolinoyl = O=C(c1ccccn1)*; 2Furoyl = O=C(c1ccco1)*; X3 = O=C([C@@H]1CCOC1)*; X7 = O=C([C@H]1CCOC1)*; X9 = O=C(c1ccc(O)nc1)*; X6 = O=C(c1ccoc1)*

The test addresses T1, LHRH (Rattus norvegicus, UniProt P30969).
T1 construct: endogenous in cells; host or cells: rat pituitary cells (own knowledge of the cited Haviv 1989 method)
T1 sequence (P30969 1-327): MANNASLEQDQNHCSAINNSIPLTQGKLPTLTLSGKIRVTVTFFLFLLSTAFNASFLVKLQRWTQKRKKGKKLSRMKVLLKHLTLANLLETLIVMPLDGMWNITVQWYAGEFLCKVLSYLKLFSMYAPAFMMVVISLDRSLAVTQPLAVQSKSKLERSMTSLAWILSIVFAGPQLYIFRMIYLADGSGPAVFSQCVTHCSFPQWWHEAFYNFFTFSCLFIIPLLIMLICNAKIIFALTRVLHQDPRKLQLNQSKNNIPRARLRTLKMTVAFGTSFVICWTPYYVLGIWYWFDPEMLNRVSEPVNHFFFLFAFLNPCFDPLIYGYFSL
As to the kind of experiment: in vitro test for LHRH antagonist potency (pA2). The settings on record: negative logarithm of the antagonist concentration required to shift the response curve produced by the agonist leuprolide to two-fold higher concentration. In kind it is cell-based. An outline of the steps: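 Antagonism read against the agonist leuprolide on rat LHRH receptor; value is pA2, the −log of antagonist concentration that doubles the agonist concentration needed for the same response.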

Regarding `CC(C)C[C@H](NC(=O)[C@@H](CCCCNC(=O)c1cccnc1)NC(=O)[C@H](Cc1ccc(O)cc1)N(C)C(=O)[C@H](CO)NC(=O)[C@@H](Cc1cccnc1)NC(=O)[C@@H](Cc1ccc(Cl)cc1)NC(=O)[C@@H](Cc1ccc2ccccc2c1)NC(=O)[C@H]1CCCO1)C(=O)N[C@@H](CCCCNC(C)C)C(=O)N1CCC[C@H]1C(=O)N[C@H](C)C(N)=O` [Example 68, N-(R)-Tetrahydrofur-2-oyl-D2Nal-D4ClPhe-D3Pal-Ser-NMeTyr-DLys(Nic)-Leu-Lys(Isp)-Pro-DAlaNH2] ({Tetrahydrofuroyl(2R)}-[d2Nal][dPhe(4-Cl)][d3Pal]S[NMeY][dK](Nicotinoyl)L[Lys(iPr)]P[dA]-NH2), the Kb was 0.0141 nM.
In the case of `CC(C)C[C@H](NC(=O)[C@@H](CCCCNC(=O)c1cccnc1)NC(=O)[C@H](Cc1ccc(O)cc1)N(C)C(=O)[C@H](CO)NC(=O)[C@@H](Cc1cccnc1)NC(=O)[C@@H](Cc1ccc(Cl)cc1)NC(=O)[C@@H](Cc1ccc2ccccc2c1)NC(=O)[C@H]1CCOC1)C(=O)N[C@@H](CCCCNC(C)C)C(=O)N1CCC[C@H]1C(=O)N[C@H](C)C(N)=O` [Example 69, N-(S)-Tetrahydrofur-3-oyl-D2Nal-D4ClPhe-D3Pal-Ser-NMeTyr-DLys(Nic)t-Leu-Lys(Isp)-Pro-DAlaNH2] (X7-[d2Nal][dPhe(4-Cl)][d3Pal]S[NMeY][dK](Nicotinoyl)L[Lys(iPr)]P[dA]-NH2), the Kb is 0.02 nM.
Take `CC(C)C[C@H](NC(=O)[C@@H](CCCCNC(=O)c1cccnc1)NC(=O)[C@H](Cc1ccc(O)cc1)N(C)C(=O)[C@H](CO)NC(=O)[C@@H](Cc1cccnc1)NC(=O)[C@@H](Cc1ccc(Cl)cc1)NC(=O)[C@@H](Cc1ccc2ccccc2c1)NC(=O)[C@@H]1CCOC1)C(=O)N[C@@H](CCCCNC(C)C)C(=O)N1CCC[C@H]1C(=O)N[C@H](C)C(N)=O` [Example 70, N-(R)-Tetrahydrofur-3-oyl-D2Nal-D4ClPhe-D3Pal-Ser-NMeTyr-DLys(Nic)-Leu-Lys(Isp)-Pro-DAlaNH2] (X3-[d2Nal][dPhe(4-Cl)][d3Pal]S[NMeY][dK](Nicotinoyl)L[Lys(iPr)]P[dA]-NH2): the Kb was 0.0126 nM.
With `CC(C)C[C@H](NC(=O)[C@@H](CCCCNC(=O)c1cccnc1)NC(=O)[C@H](Cc1ccc(O)cc1)N(C)C(=O)[C@H](CO)NC(=O)[C@@H](Cc1cccnc1)NC(=O)[C@@H](Cc1ccc(Cl)cc1)NC(=O)[C@@H](Cc1ccc2ccccc2c1)NC(=O)C1=C[C@@H](O)[C@@H](O)[C@H](O)C1)C(=O)N[C@@H](CCCCNC(C)C)C(=O)N1CCC[C@H]1C(=O)N[C@H](C)C(N)=O` [Example 71, N-Shikimyl-D2Nal-D4ClPhe-D3Pal-Ser-NMeTyr-DLys(Nic)-Leu-Lys(Isp)-Pro-DAlaNH2] (Shikimoyl-[d2Nal][dPhe(4-Cl)][d3Pal]S[NMeY][dK](Nicotinoyl)L[Lys(iPr)]P[dA]-NH2), the Kb was 0.00708 nM.
For the molecule `CC(C)C[C@H](NC(=O)[C@@H](CCCCNC(=O)c1cccnc1)NC(=O)[C@H](Cc1ccc(O)cc1)N(C)C(=O)[C@H](CO)NC(=O)[C@@H](Cc1cccnc1)NC(=O)[C@@H](Cc1ccc(Cl)cc1)NC(=O)[C@@H](Cc1ccc2ccccc2c1)NC(=O)c1ccco1)C(=O)N[C@@H](CCCCNC(C)C)C(=O)N1CCC[C@H]1C(=O)N[C@H](C)C(N)=O` [Example 72a, N-2-Furoyl-D2Nal-D4ClPhe-D3Pal-Ser-NMeTyr-DLys(Nic)-Leu-Lys(Isp)-Pro-DAlaNH2] (2Furoyl-[d2Nal][dPhe(4-Cl)][d3Pal]S[NMeY][dK](Nicotinoyl)L[Lys(iPr)]P[dA]-NH2), the Kb is 0.01 nM.
To `CC(C)C[C@H](NC(=O)[C@@H](CCCCNC(=O)c1cccnc1)NC(=O)[C@H](Cc1ccc(O)cc1)N(C)C(=O)[C@H](CO)NC(=O)[C@@H](Cc1cccnc1)NC(=O)[C@@H](Cc1ccc(Cl)cc1)NC(=O)[C@@H](Cc1ccc2ccccc2c1)NC(=O)c1ccoc1)C(=O)N[C@@H](CCCCNC(C)C)C(=O)N1CCC[C@H]1C(=O)N[C@H](C)C(N)=O` [Example 72b, N-3-Furoyl-D2Nal-D4ClPhe-D3Pal-Ser-NMeTyr-DLys(Nic)-Leu-Lys(Isp)-Pro-DAlaNH2] (X6-[d2Nal][dPhe(4-Cl)][d3Pal]S[NMeY][dK](Nicotinoyl)L[Lys(iPr)]P[dA]-NH2) belongs 0.0851 nM; to `CC(C)C[C@H](NC(=O)[C@@H](CCCCNC(=O)c1cccnc1)NC(=O)[C@H](Cc1ccc(O)cc1)N(C)C(=O)[C@H](CO)NC(=O)[C@@H](Cc1cccnc1)NC(=O)[C@@H](Cc1ccc(Cl)cc1)NC(=O)[C@@H](Cc1ccc2ccccc2c1)NC(=O)c1cccs1)C(=O)N[C@@H](CCCCNC(C)C)C(=O)N1CCC[C@H]1C(=O)N[C@H](C)C(N)=O` [Example 72c, N-Thienyl-2-carbonyl-D2Nal-D4ClPhe-D3Pal-Ser-NMeTyr-DLys(Nic)-Leu-Lys(Isp)-Pro-DAlaNH2] (Thiophene2carbonyl-[d2Nal][dPhe(4-Cl)][d3Pal]S[NMeY][dK](Nicotinoyl)L[Lys(iPr)]P[dA]-NH2), 0.02 nM; to `CC(C)C[C@H](NC(=O)[C@@H](CCCCNC(=O)c1cccnc1)NC(=O)[C@H](Cc1ccc(O)cc1)N(C)C(=O)[C@H](CO)NC(=O)[C@@H](Cc1cccnc1)NC(=O)[C@@H](Cc1ccc(Cl)cc1)NC(=O)[C@@H](Cc1ccc2ccccc2c1)NC(=O)c1cccnc1)C(=O)N[C@@H](CCCCNC(C)C)C(=O)N1CCC[C@H]1C(=O)N[C@H](C)C(N)=O` [Example 72d, N-Nicotinyl-D2Nal-D4ClPhe-D3Pal-Ser-NMeTyr-DLys(Nic)-Leu-Lys(Isp)-Pro-DAlaNH2] (Nicotinoyl-[d2Nal][dPhe(4-Cl)][d3Pal]S[NMeY][dK](Nicotinoyl)L[Lys(iPr)]P[dA]-NH2), 0.00871 nM.
As to `CC(C)C[C@H](NC(=O)[C@@H](CCCCNC(=O)c1cccnc1)NC(=O)[C@H](Cc1ccc(O)cc1)N(C)C(=O)[C@H](CO)NC(=O)[C@@H](Cc1cccnc1)NC(=O)[C@@H](Cc1ccc(Cl)cc1)NC(=O)[C@@H](Cc1ccc2ccccc2c1)NC(=O)c1ccccn1)C(=O)N[C@@H](CCCCNC(C)C)C(=O)N1CCC[C@H]1C(=O)N[C@H](C)C(N)=O` [Example 72e, N-Picolinoyl-D2Nal-D4ClPhe-D3Pal-Ser-NMeTyr-DLys(Nic)-Leu-Lys(Isp)-Pro-DAlaNH2] (Picolinoyl-[d2Nal][dPhe(4-Cl)][d3Pal]S[NMeY][dK](Nicotinoyl)L[Lys(iPr)]P[dA]-NH2), the Kb is 0.0141 nM.
For `CC(C)C[C@H](NC(=O)[C@@H](CCCCNC(=O)c1cccnc1)NC(=O)[C@H](Cc1ccc(O)cc1)N(C)C(=O)[C@H](CO)NC(=O)[C@@H](Cc1cccnc1)NC(=O)[C@@H](Cc1ccc(Cl)cc1)NC(=O)[C@@H](Cc1ccc2ccccc2c1)NC(=O)c1ccc(O)nc1)C(=O)N[C@@H](CCCCNC(C)C)C(=O)N1CCC[C@H]1C(=O)N[C@H](C)C(N)=O` [Example 72f, N-(6-Hydroxy)nicotinyl-D2Nal-D4ClPhe-D3Pal-Ser-NMeTyr-DLys(Nic)-Leu-Lys(Isp)-Pro-DAlaNH2] (X9-[d2Nal][dPhe(4-Cl)][d3Pal]S[NMeY][dK](Nicotinoyl)L[Lys(iPr)]P[dA]-NH2), the Kb is 0.01 nM.
As for `CC(C)C[C@H](NC(=O)[C@@H](CCCCNC(=O)c1cccnc1)NC(=O)[C@H](Cc1ccc(O)cc1)N(C)C(=O)[C@H](CO)NC(=O)[C@@H](Cc1cccnc1)NC(=O)[C@@H](Cc1ccc(Cl)cc1)NC(=O)[C@@H](Cc1ccc2ccccc2c1)NC(=O)c1ccncc1)C(=O)N[C@@H](CCCCNC(C)C)C(=O)N1CCC[C@H]1C(=O)N[C@H](C)C(N)=O` [Example 72g, N-Isonicotinyl-D2Nal-D4ClPhe-D3Pal-Ser-NMeTyr-DLys(Nic)-Leu-Lys(Isp)-Pro-DAlaNH2] (Isonicotinoyl-[d2Nal][dPhe(4-Cl)][d3Pal]S[NMeY][dK](Nicotinoyl)L[Lys(iPr)]P[dA]-NH2), the Kb was 0.02 nM.
To `CC(C)C[C@H](NC(=O)[C@@H](CCCCNC(=O)c1cccnc1)NC(=O)[C@H](Cc1ccc(O)cc1)N(C)C(=O)[C@H](CO)NC(=O)[C@@H](Cc1cccnc1)NC(=O)[C@@H](Cc1ccc(Cl)cc1)NC(=O)[C@@H](Cc1ccc2ccccc2c1)NC(=O)Cc1cccnc1)C(=O)N[C@@H](CCCCNC(C)C)C(=O)N1CCC[C@H]1C(=O)N[C@H](C)C(N)=O` [Example 72h, N-(3-Pyridylacetyl)-D2Nal-D4ClPhe-D3Pal-Ser-NMeTyr-DLys(Nic)-Leu-Lys(Isp)- Pro-DAlaNH2] ({Acetyl(3-pyridyl)}-[d2Nal][dPhe(4-Cl)][d3Pal]S[NMeY][dK](Nicotinoyl)L[Lys(iPr)]P[dA]-NH2) belongs 0.00631 nM; to `CC(C)C[C@H](NC(=O)[C@@H](CCCCNC(=O)c1cccnc1)NC(=O)[C@H](CCCCNC(=O)c1cccnc1)NC(=O)[C@H](CO)NC(=O)[C@@H](Cc1cccnc1)NC(=O)[C@@H](Cc1ccc(Cl)cc1)NC(=O)[C@@H](Cc1ccc2ccccc2c1)NC(=O)C1=C[C@@H](O)[C@@H](O)[C@H](O)C1)C(=O)N[C@@H](CCCCNC(C)C)C(=O)N1CCC[C@H]1C(=O)N[C@H](C)C(N)=O` [Example 73, N-Shikimyl-D2Nal-D4ClPhe-D3Pal-Ser-Lys(Nic)-DLys(Nic)-Leu-Lys(Isp)-Pro-DAlaNH2] (Shikimoyl-[d2Nal][dPhe(4-Cl)][d3Pal]SK(Nicotinoyl)[dK](Nicotinoyl)L[Lys(iPr)]P[dA]-NH2), 0.0447 nM; to `CC(C)C[C@H](NC(=O)[C@@H](CCCCNC(=O)c1cccnc1)NC(=O)[C@H](CCCCNC(=O)c1cccnc1)NC(=O)[C@H](CO)NC(=O)[C@@H](Cc1cccnc1)NC(=O)[C@@H](Cc1ccc(Cl)cc1)NC(=O)[C@@H](Cc1ccc2ccccc2c1)NC(=O)c1cccnc1)C(=O)N[C@@H](CCCCNC(C)C)C(=O)N1CCC[C@H]1C(=O)N[C@H](C)C(N)=O` [Example 74, N-Nicotinyl-D2Nal-D4ClPhe-D3Pal-Ser-Lys(Nic)-DLys(Nic)-Leu-Lys(Isp)-Pro-DAlaNH2] (Nicotinoyl-[d2Nal][dPhe(4-Cl)][d3Pal]SK(Nicotinoyl)[dK](Nicotinoyl)L[Lys(iPr)]P[dA]-NH2), 0.0562 nM.
